In ChEMBL document CHEMBL2385066, “Cationic porphyrin-quinoxaline conjugate as a photochemically triggered novel cytotoxic agent” (Bioorg Med Chem Lett, 2013):
pIC50: −log10 of the molar value. Activity calls are given as the source filed them. The rule behind the calls is not given here.

Experiments:
A549 [1] = assay: Phototoxicity against human A549 cells incubated for 24 hrs followed by exposure to visible-light for 10 mins measured after 24 hrs by WST assay; type: functional, cell-based
A549 [2] = assay: Phototoxicity against human A549 cells incubated for 24 hrs followed by UV-irradiation for 10 mins measured after 24 hrs by WST assay; type: functional, cell-based
DNA [3] = assay: Binding affinity to calf thymus DNA; type: nucleic-acid assay; conditions: Bos taurus
Escherichia coli [4] = assay: Induction of Escherichia coli pBR322 DNA cleavage assessed as conversion of supercoiled form to nicked circular form at 50 uM incubated for 30 mins followed by exposure to visible-light for 1 to 60 mins by agarose gel electrophoretic analysis
Escherichia coli [5] = assay: Induction of Escherichia coli pBR322 DNA cleavage assessed as conversion of supercoiled form to nicked circular form at 50 uM incubated for 30 mins followed by UV-irradiation for 1 to 60 mins by agarose gel electrophoretic analysis
A549 [6] = assay: Ratio of TMPyP IC50 to compound IC50 for human A549 cells incubated for 24 hrs followed by exposure to visible-light for 10 mins measured after 24 hrs by WST assay; type: functional
DNA [7] = assay: Binding affinity to calf thymus DNA assessed as blue shift at 2 uM by fluorescence spectroscopic analysis; type: nucleic-acid assay; conditions: Bos taurus
DNA [8] = assay: Binding affinity to calf thymus DNA assessed as decrease in fluorescence intensity at 2 uM by spectroscopic analysis; type: nucleic-acid assay; conditions: Bos taurus
DNA [9] = assay: Binding affinity to calf thymus DNA assessed as hypochromicity at 2 uM by UV-vis absorption titration relative to control; type: nucleic-acid assay; conditions: Bos taurus
DNA [10] = assay: Binding affinity to calf thymus DNA assessed as red shift in Soret region at 2 uM by UV-vis absorption titration; type: nucleic-acid assay; conditions: Bos taurus
[11] = Homo sapiens, A549, light or radiation study

| Compound | pIC50 (A549 [1]; [11]) | pIC50 (A549 [2]; [11]) | K (DNA [3]) | Activity (Escherichia coli [4]) | Activity (Escherichia coli [5]) | Ratio IC50 (A549 [6]) | pIC50 (A549 [1]; a549) | pIC50 (A549 [2]; a549) | Activity (DNA [7]) | Activity (DNA [8]) | Activity (DNA [9]) [%] | Activity (DNA [10]) |
| --- | --- | --- | --- | --- | --- | --- | --- | --- | --- | --- | --- | --- |
| O=C(Nc1ccc(-c2c3nc(c(-c4ccncc4)c4ccc([nH]4)c(-c4ccncc4)c4nc(c(-c5ccncc5)c5ccc2[nH]5)C=C4)C=C3)cc1)c1cnc2ccccc2n1 | 6.74 | 6.77 | – | – | – | – | – | – | – | – | – | – |
| C1=Cc2nc1c(-c1ccccc1)c1nc(c(-c3ccccc3)c3ccc([nH]3)c(-c3ccccc3)c3ccc([nH]3)c2-c2ccccc2)C=C1 [TETRAPHENYLPORPHYRIN] | < 4.70 | < 4.70 | – | – | – | – | – | – | – | – | – | – |
| C[n+]1ccc(-c2c3nc(c(-c4cc[n+](C)cc4)c4ccc([nH]4)c(-c4cc[n+](C)cc4)c4ccc([nH]4)c(-c4cc[n+](C)cc4)c4nc2C=C4)C=C3)cc1 [TMPYP4] | 6.52 | 5.91 | 2.5 ×10⁶ /M | – | – | – | – | – | – | – | – | – |
| O=C(Nc1ccc(-c2c3nc(c(-c4ccccc4)c4ccc([nH]4)c(-c4ccccc4)c4nc(c(-c5ccccc5)c5ccc2[nH]5)C=C4)C=C3)cc1)c1cnc2ccccc2n1 | < 4.70 | < 4.70 | 1.98 ×10⁵ /M | inactive | Active | – | – | – | – | – | – | – |
| C[n+]1ccc(-c2c3nc(c(-c4cc[n+](C)cc4)c4ccc([nH]4)c(-c4cc[n+](C)cc4)c4nc(c(-c5ccc(NC(=O)c6cnc7ccccc7n6)cc5)c5ccc2[nH]5)C=C4)C=C3)cc1.[I-].[I-].[I-] | – | – | 1.26 ×10⁶ /M | Active | Active | 5 | 7.22 | 6.80 | Active | Active | 39 | Active |
